In test [1] the target is T1, SARS-CoV-2 PLpro (nsp3 1564–1878) (Severe acute respiratory syndrome coronavirus 2, UniProt P0DTD1). Kind of test: biochemical. Also on record: FRET-quenched peptide (Pro3) cleavage by PLpro, 10 min pre-incubation, slope over 20 min, normalised to no-compound control. To be noted: read-out: % of control remaining.
Test [2] deals with T1, SARS-CoV-2 PLpro (nsp3 1564–1878). Kind of test: biochemical. Also on record: FRET-quenched peptide (Pro3) cleavage by PLpro, 10 min pre-incubation, slope over 20 min, normalised to no-compound control. To be noted: read-out: % of control remaining. The source holds these as a separate data set.

Each structure is given as a SMILES string. Structures can show the parent of a compound that is named as a salt. Where two headings read alike, the source gives them in different places.

As to `CCCCCN(C)CCC(O)(P(=O)(O)O)P(=O)(O)O` [Ibandronate sodium salt], the remaining activity at 3.75 µM in test [1] (Well no.=6031, high concentration screen) was 91.1%. For the same compound, the remaining activity at 1.25 µM in test [2] (Well no.=6031, low concentration screen) was 96.1%.
Consider `CCCCCN(C)CCC(O)(P(=O)(O)O)P(=O)(O)O` [Ibandronate sodium], for which, in test [1] (Well no.=5363, high concentration screen), the remaining activity at 3.75 µM came out at 89.7%. Also, the remaining activity at 1.25 µM in test [2] (Well no.=5363, low concentration screen) was found to be 90.7%.
Consider `CCCCCN(C)CCC(O)(P(=O)(O)O)P(=O)(O)O` [Ibandronate], for which the remaining activity at 3.75 µM in test [1] (Well no.=1933, high concentration screen) stood at 102%. For the same compound, the remaining activity at 1.25 µM in test [2] (Well no.=1933, low concentration screen) was 107%.
`C[S+]([O-])CCCN=C=S` (stereo not shown) [Iberin]: the remaining activity at 3.75 µM in test [1] is 90.7%. Besides, the remaining activity at 1.25 µM in test [2] worked out at 95.3%.
In the case of `CC(C)C(=O)c1c(C(C)C)nn2ccccc12` [Ibudilast], the remaining activity at 3.75 µM is 96.9% in test [1] (Well no.=572, high concentration screen) and 90% in test [1] (Well no.=1581, high concentration screen). For the same compound, the remaining activity at 1.25 µM in test [2] (Well no.=572, low concentration screen) turned out to be 98.8%; in test [2] (Well no.=1581, low concentration screen), 89.2%.
As for `CC(C)Cc1ccc(CC(=O)O)cc1` [Ibufenac], the remaining activity at 3.75 µM in test [1] (Well no.=5479, high concentration screen) is 109%. Further, in test [2] (Well no.=5479, low concentration screen), the remaining activity at 1.25 µM is 105%.
`CC(C)Cc1ccc(C(C)C(=O)O)cc1` (stereo not shown) [Ibuprofen]: the remaining activity at 3.75 µM in test [1] (Well no.=1901, high concentration screen) turned out to be 97%. For the same compound, in test [2] (Well no.=1901, low concentration screen), the remaining activity at 1.25 µM is 95.1%.
For `CC(C)Cc1ccc(C(C)C(=O)NO)cc1` (stereo not shown) [Ibuproxam], the remaining activity at 3.75 µM in test [1] (Well no.=4091, high concentration screen) amounted to 94.9%. For the same compound, the remaining activity at 1.25 µM in test [2] (Well no.=4091, low concentration screen) worked out at 95%.
As to `CC(C)(N)C(=O)N[C@H](COCc1ccccc1)C(=O)N1CCC2(CC1)CN(S(C)(=O)=O)c1ccccc12` [Ibutamoren (Mesylate)], the remaining activity at 3.75 µM in test [1] (Well no.=6186, high concentration screen) came to 94.2%. Also, the remaining activity at 1.25 µM in test [2] (Well no.=6186, low concentration screen) was found to be 98.5%.
Regarding `CCCCCCCN(CC)CCCC(O)c1ccc(NS(C)(=O)=O)cc1` (stereo not shown) [Ibutilide fumarate], the remaining activity at 3.75 µM in test [1] (Well no.=5096, high concentration screen) was 102%. Moreover, the remaining activity at 1.25 µM in test [2] (Well no.=5096, low concentration screen) is 93.1%.
`COc1ccc(-c2oc3c(CC=C(C)C)c(O[C@@H]4O[C@H](CO)[C@@H](O)[C@H](O)[C@H]4O)cc(O)c3c(=O)c2O[C@@H]2O[C@@H](C)[C@H](O)[C@@H](O)[C@H]2O)cc1` [Icariin]: the remaining activity at 3.75 µM in test [1] (Well no.=5200, high concentration screen) came out at 100%. Besides, the remaining activity at 1.25 µM in test [2] (Well no.=5200, low concentration screen) came out at 99.9%.
In the case of `O=C1NC(c2cccc([N+](=O)[O-])c2)=CCN1c1ccccc1O` [Icilin], the remaining activity at 3.75 µM in test [1] (Well no.=5682, high concentration screen) came out at 83.5%. In test [2] (Well no.=5682, low concentration screen), the remaining activity at 1.25 µM is 83.3%.
For the compound `C#Cc1cccc(Nc2ncnc3cc4c(cc23)OCCOCCOCCO4)c1` [Icotinib], in test [1] (Well no.=5229, high concentration screen), the remaining activity at 3.75 µM came out at 88.7%. For the same compound, the remaining activity at 1.25 µM in test [2] (Well no.=5229, low concentration screen) came out at 92.9%.
With `CC(=O)[C@]1(O)Cc2c(O)c3c(c(O)c2[C@@H](O[C@H]2C[C@H](N)[C@H](O)[C@H](C)O2)C1)C(=O)c1ccccc1C3=O` [Idarubicin], the remaining activity at 3.75 µM in test [1] (Well no.=574, high concentration screen) is 102%; in test [1] (Well no.=1613, high concentration screen) it was 103%. For the same compound, the remaining activity at 1.25 µM in test [2] (Well no.=574, low concentration screen) was 103%; in test [2] (Well no.=1613, low concentration screen) it was 102%.
Consider `COc1cc(C(=O)O)ccc1NC(=O)[C@@H]1N[C@@H](CC(C)(C)C)[C@](C#N)(c2ccc(Cl)cc2F)[C@H]1c1cccc(Cl)c1F` [Idasanutlin], for which the remaining activity at 3.75 µM in test [1] (Well no.=7114, high concentration screen) is 101%; in test [1] (Well no.=7554, high concentration screen) it was 93.9%. The remaining activity at 1.25 µM in test [2] (Well no.=7114, low concentration screen) is 101%; in test [2] (Well no.=7554, low concentration screen), 92.9%.
Regarding `c1ccc2c(c1)OCC(C1=NCCN1)O2` (stereo not shown) [Idazoxan hydrochloride], the remaining activity at 3.75 µM in test [1] (Well no.=821, high concentration screen) worked out at 102%. In addition, in test [2] (Well no.=821, low concentration screen), the remaining activity at 1.25 µM was 105%.
As for `COC1=C(OC)C(=O)C(CCCCCCCCCCO)=C(C)C1=O` [Idebenone], the remaining activity at 3.75 µM in test [1] (Well no.=1616, high concentration screen) was determined as 99.2%; in test [1] (Well no.=3859, high concentration screen), 105%. The remaining activity at 1.25 µM in test [2] (Well no.=1616, low concentration screen) came out at 103%; in test [2] (Well no.=3859, low concentration screen) it was 104%.
For `O=c1[nH]c(=O)n([C@H]2C[C@H](O)[C@@H](CO)O2)cc1I` [Idoxuridine], the remaining activity at 3.75 µM in test [1] (Well no.=2218, high concentration screen) came to 102%; in test [1] (Well no.=8851, high concentration screen) it was 107%. Further, the remaining activity at 1.25 µM came to 98.6% in test [2] (Well no.=2218, low concentration screen) and 105% in test [2] (Well no.=8851, low concentration screen).

For the origin of these results see paper PMC8286840, “Identifying SARS-CoV-2 antiviral compounds by screening for small molecule inhibitors of Nsp3 papain-like protease” (Biochemical Journal, 2021).
